# Results reported in US4536398A, “Antiviral agents” (Meiji Seika Kaisha Ltd., priority 1982, dated 1985).
# Like-named read-outs stand apart in the source and are kept apart here.
# Columns and labels:
# [1] = system: Influenza virus Horse/Miami; assay: microbe, parasite or virus in culture; assay type: cell-based
# [2] = system: Pseudomonas cepacia M-0527; assay: Agar dilution antibacterial MIC; assay type: cell-based; conditions: Burkholderia cepacia, M0527; agar dilution method; read-out: Minimum Inhibitory Concentration
# Solubility = assay type: physicochemical
# [3] = system: Influenza virus Horse/Miami; assay: microbe, parasite or virus in culture; assay type: cell-based; remark: listed apart in the source
# [4] = system: Baciullus anthrasis No. 119; assay: Agar dilution antibacterial MIC; assay type: cell-based; conditions: read-out: Minimum Inhibitory Concentration
# [5] = system: Influenza virus A2 /Adachi; assay: microbe, parasite or virus in culture; assay type: cell-based
# [6] = system: Pseudomonas aeruginosa MB 3829; assay: Agar dilution antibacterial MIC; assay type: cell-based; conditions: MB3829, agar dilution method, read-out: Minimum Inhibitory Concentration
# Acute toxicity (LD50) = conditions: mouse, in vivo, ip; mice, intraperitoneal
# Description: Acute toxicity (LD50 value) of the substance SF-2140, the active ingredient in the present antiviral agent, was not less than 500 mg/kg in mice via intraperitoneal administration.
# [7] = system: Citrobacter freundii GN 346; assay: Agar dilution antibacterial MIC; assay type: cell-based; conditions: GN346, read-out: Minimum Inhibitory Concentration
# Proteus morganii Kono = assay: Agar dilution antibacterial MIC; assay type: cell-based; conditions: Morganella morganii; agar dilution method; read-out: Minimum Inhibitory Concentration
# Proteus vulgaris OX-19 = assay: Agar dilution antibacterial MIC; assay type: cell-based; conditions: OX19, agar dilution method, read-out: Minimum Inhibitory Concentration
# Vibrio percolance = assay: Paper disc plate bioassay, inhibition zone; assay type: cell-based; conditions: paper disc plate method, read-out: diameter of inhibition zone
# From the text: For assay of the substance SF-2140, bioassay agar is used as a medium for assay and Vibrio percolance is as a test microbe.
# Salmonella typhi 0-901-W = assay: Agar dilution antibacterial MIC; assay type: cell-based; conditions: Salmonella enterica, read-out: Minimum Inhibitory Concentration
# [8] = system: Staphylococcus aureus 209P; assay: Agar dilution antibacterial MIC; assay type: cell-based; conditions: agar dilution method, read-out: Minimum Inhibitory Concentration
# [9] = Serum level after oral administration; assay type: in vivo; conditions: 125 mg/kg oral (5% arabin gum), HPLC, mice n=3
# Description: | Dose: 125 mg/kg (5% arabin gum)
# [10] = system: Shigella sonnei EW33 type I; assay: Agar dilution antibacterial MIC; assay type: cell-based; conditions: EW33TYPEI, agar dilution method, read-out: Minimum Inhibitory Concentration
# Influenza virus A1 /FM-1 [11] = assay: microbe, parasite or virus in culture; assay type: cell-based
# Escherichia coli No. 29 = assay: Agar dilution antibacterial MIC; assay type: cell-based; conditions: agar dilution method, read-out: Minimum Inhibitory Concentration
# [12] = system: Escherichia coli W3630 RGN 823; assay: Agar dilution antibacterial MIC; assay type: cell-based; conditions: W3630RGN823, read-out: Minimum Inhibitory Concentration
# Influenza virus B/Lee [13] = assay: microbe, parasite or virus in culture; assay type: cell-based; conditions: unidentified influenza virus, 48 h, read-out: 50% Virus proliferation inhibiting conc.
# Influenza virus A1 /FM-1 [14] = assay: microbe, parasite or virus in culture; assay type: cell-based; remark: listed apart in the source
# [15] = system: Klebsiella pneumoniae PCI 602; assay: Agar dilution antibacterial MIC; assay type: cell-based; conditions: PCI602, agar dilution method, read-out: Minimum Inhibitory Concentration
# in vitro = conditions: chicken, chorioallantoic membrane
# [16] = Serum level after intraperitoneal administration; assay type: in vivo; conditions: 200 mg/kg intraperitoneal (1% CMC), biological assay, mice n=5
# Description: | Dose: 200 mg/kg (1% CMC)
# [17] = system: Salmonella enteritidis No. 11; assay: Agar dilution antibacterial MIC; assay type: cell-based; conditions: Salmonella enterica, agar dilution method, read-out: Minimum Inhibitory Concentration
# Stability = assay type: physicochemical
# From the text: (13) Stability: Stable under acidic to neutral condition, instable under alkaline condition.
# Sarcina lutea = assay: Agar dilution antibacterial MIC; assay type: cell-based; conditions: Micrococcus luteus; agar dilution method; read-out: Minimum Inhibitory Concentration
# [18] = system: Streptococcus faecalis ATCC 8043; assay: Agar dilution antibacterial MIC; assay type: cell-based; conditions: Enterococcus faecalis, ATCC8043; agar dilution method; read-out: Minimum Inhibitory Concentration
# [19] = system: Staphylococcus aureus Smith; assay: Agar dilution antibacterial MIC; assay type: cell-based; conditions: agar dilution method, read-out: Minimum Inhibitory Concentration
# Influenza virus B/Lee [20] = assay: microbe, parasite or virus in culture; assay type: cell-based
# [21] = system: Influenza virus A2 /Adachi; assay: microbe, parasite or virus in culture; assay type: cell-based; remark: listed apart in the source
# [22] = unidentified influenza virus, 2 h, read-out: 50% Virucidal conc.
# [23] = unidentified influenza virus, 48 h, read-out: 50% Virus proliferation inhibiting conc.
smiles,measurement,setting,value
COC(=O)C1CC(O)C(O)C(n2cc(CC#N)c3c(OC)cccc32)O1 (stereo not shown) [SF-2140],virucidal activity (in words),[1],potent virucidal activity
same,IC50,[1]; [22],4.6 µg/mL
same,MIC,[2],100 µg/mL
same,Solubility,"Solubility; Ethyl acetate, benzene, acetone, chloroform",Soluble
same,Solubility,"Solubility; Hexane, water",Substantially insoluble
same,Solubility,"Solubility; Lower alcohol, e.g. methanol and ethanol",Easily soluble
same,proliferation inhibiting activity (in words),[3],showed a proliferation inhibiting activity
same,virus proliferation inhibition index,"[3]; Horse/Miami, 50% toxicity conc. / 50% proliferation inhibiting conc., 2880 min",> 56.5
same,IC50,[3]; [23],17.7 µg/mL
same,MIC,[4],6.25 µg/mL
same,virucidal activity (in words),[5],potent virucidal activity
same,IC50,[5]; [22],58.8 µg/mL
same,MIC,[6],> 100 µg/mL
same,LD50,Acute toxicity (LD50),≥ 500 mg/kg
same,MIC,[7],> 100 µg/mL
same,MIC,Proteus morganii Kono,> 100 µg/mL
same,MIC,Proteus vulgaris OX-19,25 µg/mL
same,zone of inhibition at 125 µg/mL,Vibrio percolance; 125 mcg/ml,14.6 mm
same,zone of inhibition at 1000 µg/mL,Vibrio percolance; 1000 mcg/ml,22 mm
same,MIC,Salmonella typhi 0-901-W,100 µg/mL
same,MIC,[8],25 µg/mL
same,Serum concentration,[9]; 180 min,0 ng/mL
same,concentration at 0.5 h,"[9]; mouse, serum, 30 min",15000 ng/mL
same,concentration at 1 h,"[9]; mouse, serum, 60 min",7000 ng/mL
same,MIC,[10],> 100 µg/mL
same,proliferation inhibiting activity (in words),Influenza virus A1 /FM-1 [11],showed a proliferation inhibiting activity
same,virus proliferation inhibition index,"Influenza virus A1 /FM-1 [11]; A1 /FM-1, 50% toxicity conc. / 50% proliferation inhibiting conc., 2880 min",> 20.0
same,IC50,Influenza virus A1 /FM-1 [11]; [23],50.5 µg/mL
same,MIC,Escherichia coli No. 29,> 100 µg/mL
same,MIC,[12],50 µg/mL
same,IC50,Influenza virus B/Lee [13],> 200 µg/mL
same,virucidal activity (in words),Influenza virus A1 /FM-1 [14],potent virucidal activity
same,IC50,Influenza virus A1 /FM-1 [14]; [22],4.6 µg/mL
same,MIC,[15],> 100 µg/mL
same,CC50 at 24 h,in vitro,> 1000 µg/mL
same,Serum concentration,[16]; 90 min,0 ng/mL
same,concentration at 5 min,"[16]; mouse, serum, ip, 5 min",30000 ng/mL
same,concentration at 10 min,"[16]; mouse, serum, ip, 10 min",42000 ng/mL
same,concentration at 20 min,"[16]; mouse, serum, ip, 20 min",55000 ng/mL
same,concentration at 0.5 h,"[16]; mouse, serum, ip, 30 min",45000 ng/mL
same,concentration at 1 h,"[16]; mouse, serum, ip, 60 min",27000 ng/mL
same,MIC,[17],12.5 µg/mL
same,Stability,Stability; acidic to neutral condition,Stable
same,Stability,Stability; alkaline condition,instable
same,MIC,Sarcina lutea,50 µg/mL
same,MIC,[18],12.5 µg/mL
same,MIC,[19],100 µg/mL
same,virucidal activity (in words),Influenza virus B/Lee [20],potent virucidal activity
same,IC50,Influenza virus B/Lee [20]; [22],46.4 µg/mL
same,proliferation inhibiting activity (in words),[21],showed a proliferation inhibiting activity
same,virus proliferation inhibition index,"[21]; A2 /Adachi, 50% toxicity conc. / 50% proliferation inhibiting conc., 2880 min",> 10.0
same,IC50,[21]; [23],100 µg/mL
